This note sets out measurements from ChEMBL document CHEMBL4673292, “Design, synthesis and anticancer activity of 2-amidomethoxy-1,4-naphthoquinones and its conjugates with Biotin/polyamine” (Bioorg Med Chem Lett, 2021).

A value given as a limit tells only on which side of the number the result lay.

For orientation: IC50 means the concentration that gives 50% inhibition. A low value points to inhibition by little substance.

The subject of one experiment is K562. The experiment can be described thus: Antiproliferative activity against human K562 cells. It is filed as functional, cell-based.
The test system of a further experiment is COLO 205. The experiment can be described thus: Antiproliferative activity against human COLO205 cells. It is filed as functional, cell-based.
The next experiment has as its system T47D. The experiment can be described thus: Antiproliferative activity against human T47D cells. It is filed as functional, cell-based.
Experiment [1] can be described thus: Selectivity index, ratio of IC50 for human CCD-18Co cells to IC50 for human K562 cells.
The subject of the next experiment is CCD-18Co. The experiment can be described thus: Cytotoxicity against human CCD-18Co cells. Type of experiment: cell-based.
A short description of experiment [2]: Selectivity index, ratio of IC50 for human CCD-18Co cells to IC50 for human COLO 205 cells.
Experiment [3] is described as follows: Selectivity index, ratio of IC50 for human CCD-18Co cells to IC50 for human T47D cells.

As to `CC(=O)NCCCCCCNC(=O)COC1=CC(=O)c2c(O)cccc2C1=O`, the IC50 amounted to 2300 nM in the experiment on K562, 2400 nM in the experiment with COLO 205 and 1200 nM with T47D.

Regarding `NCCNC(=O)COC1=CC(=O)c2c(O)cccc2C1=O`, the 50% inhibitory concentration (IC50) is 4100 nM with K562, 4700 nM in the experiment with COLO 205 and 2800 nM in the experiment on T47D.

For the compound `O=C(CCCCC1SCC2NC(=O)NC21)NCCCCCCNC(=O)COC1=CC(=O)c2c(O)cccc2C1=O` (centres undefined), the “Ratio IC50” value in experiment [1], in experiment [2] and in experiment [3] was greater than 10 throughout. Besides, the 50% inhibitory concentration (IC50) with K562 amounted to 1100 nM; in the experiment on COLO 205 it was 1400 nM; with T47D, 500 nM; with CCD-18Co, 9200 nM.

For the compound `NCCCCC(CN)CNC(=O)COC1=CC(=O)c2c(O)cccc2C1=O` (centres undefined), the values for the IC50 in the experiment with K562, with COLO 205 and with T47D were greater than 10000 nM, 7300 nM and 9600 nM, respectively.

As to `NCCCCCCNC(=O)COC1=CC(=O)c2ccccc2C1=O`, the IC50 is greater than 10000 nM with K562, greater than 10000 nM in the experiment with COLO 205 and 6500 nM in the experiment on T47D.

Turning to `COC(=O)CCCCCNC(=O)COC1=CC(=O)c2c(O)cccc2C1=O`, the concentration for half-maximal inhibition (IC50) is 4900 nM in the experiment with K562, 4400 nM in the experiment with COLO 205 and 3600 nM in the experiment with T47D.

For the compound `O=C1NC2CSC(CCCCC(=O)N3CCN(C(=O)COC4=CC(=O)c5ccccc5C4=O)CC3)C2N1` (centres undefined), the IC50 in the experiment on K562 came out at 1500 nM; in the experiment on COLO 205, 2300 nM; in the experiment on T47D, 1200 nM.

In the case of `CC(C)(C)OC(=O)NCCCCCCNC(=O)COC1=CC(=O)c2c(O)cccc2C1=O`, the “Ratio IC50” value in experiment [1], in experiment [2] and in experiment [3] was greater than 10 each time. Also, the IC50 in the experiment with K562 came to 1000 nM; with COLO 205, 1300 nM; in the experiment on T47D, 300 nM; in the experiment with CCD-18Co it was 7300 nM.

As for `NCCCC(=O)NCCCCNC(=O)COC1=CC(=O)c2c(O)cccc2C1=O.O=C(O)C(F)(F)F.O=C(O)C(F)(F)F`, the “Ratio IC50” value in experiment [1], in experiment [2] and in experiment [3] was greater than 10 each time. Also, the half-inhibitory concentration (IC50) in the experiment with K562 amounted to 1700 nM; in the experiment with COLO 205 it was 1200 nM; in the experiment on T47D, 1700 nM; in the experiment with CCD-18Co, 8300 nM.

As for `O=C(O)C(F)(F)F.O=C1C(OCC(=O)N2CCNCC2)=CC(=O)c2c(O)cccc21`, the “Ratio IC50” value in experiment [1], in experiment [2] and in experiment [3] was greater than 10 in each case. Besides, the IC50 in the experiment with K562 is 500 nM; with COLO 205, 800 nM; with T47D, 600 nM; in the experiment on CCD-18Co, 8900 nM.

With `NCC(CN)CCCCNC(=O)COC1=CC(=O)c2c(O)cccc2C1=O`, the half-inhibitory concentration (IC50) worked out at 5100 nM in the experiment with K562, 5300 nM in the experiment with COLO 205 and 6100 nM in the experiment with T47D.

For `CC(C)(C)OC(=O)NCCCCCCNC(=O)COC1=CC(=O)c2ccccc2C1=O`, the figures for the 50% inhibitory concentration (IC50) in the experiment on K562, in the experiment on COLO 205 and in the experiment with T47D were 6700 nM, greater than 10000 nM and greater than 10000 nM, respectively.

Turning to `CC(C)(C)OC(=O)N1CCN(C(=O)COC2=CC(=O)c3c(O)cccc3C2=O)CC1`, the concentration for half-maximal inhibition (IC50) with K562 turned out to be 1200 nM; in the experiment with COLO 205, 2300 nM; with T47D it was 800 nM.

`CC(C)(C)OC(=O)NCCNC(=O)COC1=CC(=O)c2c(O)cccc2C1=O`: the values for the IC50 with K562, in the experiment with COLO 205 and with T47D were 1100 nM, 1400 nM and 100 nM, respectively.

As for `O=C(CCCCC1SCC2NC(=O)NC21)NCCCCCCNC(=O)COC1=CC(=O)c2ccccc2C1=O` (centres undefined), the IC50 in the experiment on K562 was greater than 10000 nM; in the experiment on COLO 205, greater than 10000 nM; with T47D, 1800 nM.

As to `CC(C)(C)OC(=O)NCC(CCCCNC(=O)COC1=CC(=O)c2c(O)cccc2C1=O)NC(=O)OC(C)(C)C` (centres undefined), the IC50 with K562 came to 1100 nM; in the experiment with COLO 205, 1600 nM; in the experiment on T47D, 1100 nM.

With `CC(C)(C)OC(=O)NCCCCC(CNC(=O)COC1=CC(=O)c2c(O)cccc2C1=O)NC(=O)OC(C)(C)C` (centres undefined), the values for the IC50 in the experiment on K562, with COLO 205 and in the experiment on T47D were 1300 nM, 3100 nM and 1400 nM, respectively.

With `NCCCCCCNC(=O)COC1=CC(=O)c2c(O)cccc2C1=O.O=C(O)C(F)(F)F`, the “Ratio IC50” value in experiment [1], in experiment [2] and in experiment [3] was greater than 10 each time. Besides, the IC50 was 800 nM with K562, 800 nM with COLO 205, 600 nM in the experiment on T47D and 8600 nM with CCD-18Co.

On to `O=C(CCCCC1SCC2NC(=O)NC21)NCCNC(=O)COC1=CC(=O)c2c(O)cccc2C1=O` (centres undefined), for which the concentration for half-maximal inhibition (IC50) in the experiment on COLO 205 and in the experiment on T47D was greater than 10000 nM throughout.

Consider `CCCCCCCNC(=O)COC1=CC(=O)c2c(O)cccc2C1=O`, for which the half-maximal inhibitory concentration (IC50) was 5700 nM with K562, greater than 10000 nM in the experiment with COLO 205 and 4600 nM in the experiment on T47D.

With `O=C(COC1=CC(=O)c2c(O)cccc2C1=O)NCCCCCCO`, the IC50 with K562 amounted to 3300 nM; in the experiment on COLO 205 it was 2800 nM; with T47D, 3300 nM.

With `CC(C)(C)OC(=O)NCC(CCCCNC(=O)COC1=CC(=O)c2c(O)cccc2C1=O)CNC(=O)CCCCC1SCC2NC(=O)NC21` (racemic), the results for the concentration for half-maximal inhibition (IC50) with K562 and with T47D were greater than 10000 nM and 7900 nM, respectively.
